From PMC5218480 (PLoS ONE, 2017) come the findings set out here.

The assay concerns MV-4-11 cells. Put plainly: Gene expression microarray analysis (Affymetrix PrimeView) and GSEA. Conditions: MV-4-11 cells, 48 hours. The class given is cell-based, human. Also on record: RFU PODN (11730768_x_at) / Fold change /veh PODN (11730768_x_at) / RFU LINC00158 (11744669_a_at) / Fold change /veh LINC00158 (11744669_a_at) / RFU DUSP10 (11751237_a_at) / Fold change /veh DUSP10 (11751237_a_at) / RFU ID3 (11757404_x_at) / Fold change /veh ID3 (11757404_x_at) / RFU PLEKHG5 (11737974_s_at) / Fold change /veh PLEKHG5 (11737974_s_at) / RFU LRRC4B (11730491_at) / Fold change /veh LRRC4B (11730491_at) / RFU GIMAP4 (11747438_a_at) / Fold change /veh GIMAP4 (11747438_a_at) / RFU KRT8 (11758183_x_at) / Fold change /veh KRT8 (11758183_x_at) / RFU CNN1 (11734310_a_at) / Fold change /veh CNN1 (11734310_a_at) / RFU VPS37D (11726825_at) / Fold change /veh VPS37D (11726825_at) / RFU C10orf10 (11716522_x_at) / Fold change /veh C10orf10 (11716522_x_at) / RFU KIR2DL2 /// KIR2DL4 /// KIR2DL5A /// KIR2DL5B /// KIR2DS1 /// KIR2DS2 /// KIR2DS3 /// KIR2DS4 /// KIR3DL3 /// KIR3DL3 /// KIR3DS1 (11738374_at) / Fold change /veh KIR2DL2 /// KIR2DL4 /// KIR2DL5A /// KIR2DL5B /// KIR2DS1 /// KIR2DS2 /// KIR2DS3 /// KIR2DS4 /// KIR3DL3 /// KIR3DL3 /// KIR3DS1 (11738374_at) / RFU C1QL1 (11718748_at) / Fold change /veh C1QL1 (11718748_at) / RFU TMPRSS4 (11747572_a_at) / Fold change /veh TMPRSS4 (11747572_a_at) / RFU HAMP (11756126_x_at) / Fold change /veh HAMP (11756126_x_at) / RFU RNFT2 (11725882_a_at) / Fold change /veh RNFT2 (11725882_a_at) / RFU NR4A2 (11747474_a_at) / Fold change /veh NR4A2 (11747474_a_at) / RFU ABCC12 (11746883_a_at) / Fold change /veh ABCC12 (11746883_a_at) / RFU TMEM136 (11760407_x_at) / Fold change /veh TMEM136 (11760407_x_at) / RFU CLDN22 /// WWC2 (11732394_at) / Fold change /veh CLDN22 /// WWC2 (11732394_at) / RFU HLA-DPB1 (11760878_x_at) / Fold change /veh HLA-DPB1 (11760878_x_at) / RFU SPINT1 (11716480_a_at) / Fold change /veh SPINT1 (11716480_a_at) / RFU GAP43 (11754022_s_at) / Fold change /veh GAP43 (11754022_s_at) / RFU A4GNT (11735810_at) / Fold change /veh A4GNT (11735810_at) / RFU PRB3 (11715151_x_at) / Fold change /veh PRB3 (11715151_x_at) / RFU TUBB4B (11761932_at) / Fold change /veh TUBB4B (11761932_at) / RFU CAPN14 (11732068_a_at) / Fold change /veh CAPN14 (11732068_a_at) / RFU TMCC2 (11721928_a_at) / Fold change /veh TMCC2 (11721928_a_at) / RFU IRGQ (11745062_a_at) / Fold change /veh IRGQ (11745062_a_at) / RFU FAM174B (11720279_a_at) / Fold change /veh FAM174B (11720279_a_at) / RFU TMPRSS4 (11748680_a_at) / Fold change /veh TMPRSS4 (11748680_a_at) / RFU FAM212B (11763350_a_at) / Fold change /veh FAM212B (11763350_a_at) / RFU PLEKHG5 (11743358_a_at) / Fold change /veh PLEKHG5 (11743358_a_at) / RFU ZSCAN30 (11745921_a_at) / Fold change /veh ZSCAN30 (11745921_a_at) / RFU CMKLR1 (11741424_a_at) / Fold change /veh CMKLR1 (11741424_a_at) / RFU LOC101060620 /// MAPK8IP1 (11723275_at) / Fold change /veh LOC101060620 /// MAPK8IP1 (11723275_at) / RFU SPTSSB (11747773_x_at) / Fold change /veh SPTSSB (11747773_x_at) / RFU PRSS12 (11739890_at) / Fold change /veh PRSS12 (11739890_at) / RFU BIN1 (11741810_x_at) / Fold change /veh BIN1 (11741810_x_at) / RFU WNT11 (11732464_a_at) / Fold change /veh WNT11 (11732464_a_at) / RFU C10orf10 (11716521_a_at) / Fold change /veh C10orf10 (11716521_a_at) / RFU C5orf56 (11738089_at) / Fold change /veh C5orf56 (11738089_at) / RFU CYB561 (11721691_x_at) / Fold change /veh CYB561 (11721691_x_at) / RFU ANKRD19P (11752326_a_at) / Fold change /veh ANKRD19P (11752326_a_at) / RFU OR2T12 /// OR2T33 /// OR2T8 (11738714_s_at) / Fold change /veh OR2T12 /// OR2T33 /// OR2T8 (11738714_s_at) / RFU VCAN (11748164_a_at) / Fold change /veh VCAN (11748164_a_at) / RFU JSRP1 (11732532_at) / Fold change /veh JSRP1 (11732532_at) / RFU KRTAP10-11 (11738290_x_at) / Fold change /veh KRTAP10-11 (11738290_x_at) / RFU MYO3A (11730013_a_at) / Fold change /veh MYO3A (11730013_a_at) / RFU EBF3 (11725865_a_at) / Fold change /veh EBF3 (11725865_a_at) / RFU CAMK2N1 (11719241_x_at) / Fold change /veh CAMK2N1 (11719241_x_at) / RFU C5orf56 (11738088_a_at) / Fold change /veh C5orf56 (11738088_a_at) / RFU OLFML3 (11715873_a_at) / Fold change /veh OLFML3 (11715873_a_at) / RFU LOC100653217 /// NTM (11731650_a_at) / Fold change /veh LOC100653217 /// NTM (11731650_a_at) / RFU MAPK11 (11762145_a_at) / Fold change /veh MAPK11 (11762145_a_at) / RFU FIZ1 (11724087_x_at) / Fold change /veh FIZ1 (11724087_x_at) / RFU OASL (11726364_x_at) / Fold change /veh OASL (11726364_x_at) / RFU SOX15 (11748057_x_at) / Fold change /veh SOX15 (11748057_x_at) / RFU CD79A (11719716_a_at) / Fold change /veh CD79A (11719716_a_at) / RFU HIST1H1D (11736915_at) / Fold change /veh HIST1H1D (11736915_at) / RFU CASKIN2 (11723855_a_at) / Fold change /veh CASKIN2 (11723855_a_at) / RFU LOC730098 (11760151_x_at) / Fold change /veh LOC730098 (11760151_x_at) / RFU OR4N2 (11742367_at) / Fold change /veh OR4N2 (11742367_at) / RFU PRRT2 (11749266_a_at) / Fold change /veh PRRT2 (11749266_a_at) / RFU SNX32 (11753110_a_at) / Fold change /veh SNX32 (11753110_a_at) / RFU CDHR5 (11726645_a_at) / Fold change /veh CDHR5 (11726645_a_at) / RFU RCAN1 (11760418_a_at) / Fold change /veh RCAN1 (11760418_a_at) / RFU FAM167A (11723789_a_at) / Fold change /veh FAM167A (11723789_a_at) / RFU FAM26E (11764081_at) / Fold change /veh FAM26E (11764081_at) / RFU ISYNA1 (11749810_s_at) / Fold change /veh ISYNA1 (11749810_s_at) / RFU ACY1 (11761880_at) / Fold change /veh ACY1 (11761880_at) / RFU 11764098_at / Fold change /veh 11764098_at / RFU SAMD14 (11745864_x_at) / Fold change /veh SAMD14 (11745864_x_at) / RFU NPB (11741838_a_at) / Fold change /veh NPB (11741838_a_at) / RFU TMPRSS6 (11731388_a_at) / Fold change /veh TMPRSS6 (11731388_a_at) / RFU KRTAP10-2 (11738614_at) / Fold change /veh KRTAP10-2 (11738614_at) / RFU ARHGAP8 /// PRR5-ARHGAP8 (11727945_x_at) / Fold change /veh ARHGAP8 /// PRR5-ARHGAP8 (11727945_x_at) / RFU KRTAP5-7 /// NADSYN1 (11734609_at) / Fold change /veh KRTAP5-7 /// NADSYN1 (11734609_at) / RFU RASL12 (11751679_a_at) / Fold change /veh RASL12 (11751679_a_at) / RFU CDKN2B (11736163_a_at) / Fold change /veh CDKN2B (11736163_a_at) / RFU PRF1 (11729649_at) / Fold change /veh PRF1 (11729649_at) / RFU, ZNF638 /// ZNF638-IT1 / Fold change vs veh, ZNF638 /// ZNF638-IT1 / RFU, PANK3 / Fold change vs veh, PANK3 / RFU, SH3YL1 / Fold change vs veh, SH3YL1 / RFU, ZEB2 / Fold change vs veh, ZEB2 / RFU, NRIP1 / Fold change vs veh, NRIP1 / RFU, PTTG1IP / Fold change vs veh, PTTG1IP / RFU, CAPN2 / Fold change vs veh, CAPN2 / RFU, MED14 / Fold change vs veh, MED14 / RFU, SNORA58 / Fold change vs veh, SNORA58 / RFU, C1orf63 / Fold change vs veh, C1orf63 / RFU, LRRFIP1 / Fold change vs veh, LRRFIP1 / RFU, NDUFAF7 / Fold change vs veh, NDUFAF7 / RFU, SLC12A2 / Fold change vs veh, SLC12A2 / RFU, IBTK / Fold change vs veh, IBTK / RFU, ESF1 / Fold change vs veh, ESF1 / Fold change vs veh, TMEM50B / RFU, TAOK1 / Fold change vs veh, TAOK1 / RFU, ACBD3 / Fold change vs veh, ACBD3 / RFU, TMA16 / Fold change vs veh, TMA16 / RFU, RWDD3 / Fold change vs veh, RWDD3 / RFU, BCAT1 / Fold change vs veh, BCAT1 / RFU, EDEM3 / Fold change vs veh, EDEM3 / RFU, TMEM33 / Fold change vs veh, TMEM33 / RFU, WDR75 / Fold change vs veh, WDR75 / RFU, AHCTF1 / Fold change vs veh, AHCTF1 / RFU, TFRC / Fold change vs veh, TFRC / RFU, ZDHHC17 / Fold change vs veh, ZDHHC17 / RFU, NOM1 / Fold change vs veh, NOM1 / RFU, ARL8B / Fold change vs veh, ARL8B / RFU, ZBTB11 / Fold change vs veh, ZBTB11 / RFU, TAMM41 / Fold change vs veh, TAMM41 / RFU, KIAA1704 /// LOC100996395 / Fold change vs veh, KIAA1704 /// LOC100996395 / RFU, ING1 / Fold change vs veh, ING1 / RFU, TRMT61B / Fold change vs veh, TRMT61B / RFU, FUBP3 / Fold change vs veh, FUBP3 / RFU, TP53 / Fold change vs veh, TP53 / RFU, TNKS2 / Fold change vs veh, TNKS2 / RFU, ZFP14 / Fold change vs veh, ZFP14 / RFU, ACTR2 / Fold change vs veh, ACTR2 / RFU, PPP3R1 / Fold change vs veh, PPP3R1 / RFU, PIK3R1 / Fold change vs veh, PIK3R1 / RFU, HNRNPA1 / Fold change vs veh, HNRNPA1 / RFU, RNF170 / Fold change vs veh, RNF170 / RFU, ZNF28 / Fold change vs veh, ZNF28 / RFU, RNGTT / Fold change vs veh, RNGTT / RFU, OGT / Fold change vs veh, OGT / RFU, BRD1 / Fold change vs veh, BRD1 / RFU, MARS / Fold change vs veh, MARS / RFU, ZNF655 / Fold change vs veh, ZNF655 / RFU, FAHD1 / Fold change vs veh, FAHD1 / RFU, BDP1 / Fold change vs veh, BDP1 / RFU, LRRCC1 / Fold change vs veh, LRRCC1 / RFU, ARID1A / Fold change vs veh, ARID1A / RFU, ZNF146 / Fold change vs veh, ZNF146 / RFU, ZNF330 / Fold change vs veh, ZNF330 / RFU, GPN3 / Fold change vs veh, GPN3 / RFU, C9orf123 / Fold change vs veh, C9orf123 / RFU, N4BP2L2 / Fold change vs veh, N4BP2L2 / RFU, ARFIP1 / Fold change vs veh, ARFIP1 / RFU, FAM179B / Fold change vs veh, FAM179B / RFU, BCL10 / Fold change vs veh, BCL10 / RFU, UHRF1BP1L / Fold change vs veh, UHRF1BP1L / RFU, BET1 / Fold change vs veh, BET1 / RFU, CNOT2 / Fold change vs veh, CNOT2 / RFU, ZNF268 / Fold change vs veh, ZNF268 / Fold change vs veh, ZNF507 / RFU, DGCR2 / Fold change vs veh, DGCR2 / RFU, WDSUB1 / Fold change vs veh, WDSUB1 / Fold change vs veh, HSP90B1 /// MIR3652 / RFU, ADSS / Fold change vs veh, ADSS / RFU, GK / Fold change vs veh, GK / RFU, ZNF148 / Fold change vs veh, ZNF148 / RFU, TAF9 / Fold change vs veh, TAF9 / RFU, SLC1A5 / Fold change vs veh, SLC1A5 / RFU, SLMO2 / Fold change vs veh, SLMO2 / RFU, ABCC4 / Fold change vs veh, ABCC4 / RFU, LOC101060439 /// RAP1B / Fold change vs veh, LOC101060439 /// RAP1B / RFU, RFX7 / Fold change vs veh, RFX7 / RFU, GTPBP10 / Fold change vs veh, GTPBP10 / RFU, CNEP1R1 / Fold change vs veh, CNEP1R1 / RFU, BIVM-ERCC5 /// ERCC5 / Fold change vs veh, BIVM-ERCC5 /// ERCC5 / RFU, ILF3 / Fold change vs veh, ILF3 / RFU 11762660_at / Fold change /veh 11762660_at / RFU VCAN (11757783_s_at) / Fold change /veh VCAN (11757783_s_at) / RFU DDX43 (11728927_at) / Fold change /veh DDX43 (11728927_at) / RFU KRT8 (11758188_x_at) / Fold change /veh KRT8 (11758188_x_at) / RFU NKD1 (11759106_at) / Fold change /veh NKD1 (11759106_at) / RFU SRD5A1 (11742802_a_at) / Fold change /veh SRD5A1 (11742802_a_at) / RFU TPSAB1 /// TPSB2 (11721975_s_at) / Fold change /veh TPSAB1 /// TPSB2 (11721975_s_at) / RFU GSTM3 (11746129_a_at) / Fold change /veh GSTM3 (11746129_a_at) / RFU IL23R (11737362_x_at) / Fold change /veh IL23R (11737362_x_at) / RFU TMEM51 (11727254_a_at) / Fold change /veh TMEM51 (11727254_a_at) / RFU PIWIL2 (11732686_x_at) / Fold change /veh PIWIL2 (11732686_x_at) / RFU ORM1 (11744905_x_at) / Fold change /veh ORM1 (11744905_x_at) / RFU CCDC152 (11743942_at) / Fold change /veh CCDC152 (11743942_at) / RFU ECM1 (11717891_a_at) / Fold change /veh ECM1 (11717891_a_at) / RFU IL23R (11748794_a_at) / Fold change /veh IL23R (11748794_a_at) / RFU TNFAIP8L3 (11732012_x_at) / Fold change /veh TNFAIP8L3 (11732012_x_at) / RFU MBOAT4 (11741988_at) / Fold change /veh MBOAT4 (11741988_at) / RFU 11764193_at / Fold change /veh 11764193_at / RFU TMEM53 (11763286_at) / Fold change /veh TMEM53 (11763286_at) / RFU MAGEB2 (11727129_at) / Fold change /veh MAGEB2 (11727129_at) / RFU TMEM200A (11744735_a_at) / Fold change /veh TMEM200A (11744735_a_at) / RFU CCDC152 (11751479_a_at) / Fold change /veh CCDC152 (11751479_a_at) / RFU FAM211A (11726209_a_at) / Fold change /veh FAM211A (11726209_a_at) / RFU RGS16 (11746705_a_at) / Fold change /veh RGS16 (11746705_a_at) / RFU VCAN (11755009_s_at) / Fold change /veh VCAN (11755009_s_at) / RFU RHOB (11743442_s_at) / Fold change /veh RHOB (11743442_s_at) / RFU RGS16 (11720943_a_at) / Fold change /veh RGS16 (11720943_a_at) / RFU RGS16 (11720944_at) / Fold change /veh RGS16 (11720944_at) / RFU, VPS4B / Fold change vs veh, VPS4B / RFU, CREB1 / Fold change vs veh, CREB1 / RFU, DNAJC13 / Fold change vs veh, DNAJC13 / RFU, GNAQ / Fold change vs veh, GNAQ / RFU, CDK5R1 / Fold change vs veh, CDK5R1 / RFU, ZRANB3 / Fold change vs veh, ZRANB3 / RFU, CUL4A / Fold change vs veh, CUL4A / RFU, CCNY / Fold change vs veh, CCNY / RFU, UFL1 / Fold change vs veh, UFL1 / RFU, COG3 / Fold change vs veh, COG3 / RFU, DIAPH2 / Fold change vs veh, DIAPH2 / RFU, SKA2 / Fold change vs veh, SKA2 / RFU, AFF3 / Fold change vs veh, AFF3 / RFU, LMF1 / Fold change vs veh, LMF1 / RFU, IPO11 / Fold change vs veh, IPO11 / RFU, DFFB / Fold change vs veh, DFFB / RFU, FOXP1 / Fold change vs veh, FOXP1 / RFU, CARD8 / Fold change vs veh, CARD8 / RFU, STRN3 / Fold change vs veh, STRN3 / RFU, ADK / Fold change vs veh, ADK / RFU, RASSF2 / Fold change vs veh, RASSF2 / RFU, WIPF1 / Fold change vs veh, WIPF1 / RFU, LARP1B / Fold change vs veh, LARP1B / RFU, RASA1 / Fold change vs veh, RASA1 / RFU, RB1 / Fold change vs veh, RB1 / RFU, PPFIA1 / Fold change vs veh, PPFIA1 / RFU, MAT2A / Fold change vs veh, MAT2A / RFU, CCT5 / Fold change vs veh, CCT5 / RFU, WDR92 / Fold change vs veh, WDR92 / RFU, CUX1 / Fold change vs veh, CUX1 / RFU, TTC7A / Fold change vs veh, TTC7A / RFU, TMEM135 / Fold change vs veh, TMEM135 / RFU, DEPTOR / Fold change vs veh, DEPTOR / RFU, CPM / Fold change vs veh, CPM / RFU, DNAJB6 / Fold change vs veh, DNAJB6 / RFU, CACNA2D3 / Fold change vs veh, CACNA2D3 / RFU, DTX4 / Fold change vs veh, DTX4 / RFU, TFCP2 / Fold change vs veh, TFCP2 / RFU, GMCL1 /// GMCL1P1 / Fold change vs veh, GMCL1 /// GMCL1P1 / RFU, AEBP2 / Fold change vs veh, AEBP2 / RFU, SNHG1 /// SNORD22 /// SNORD25 /// SNORD26 /// SNORD27 /// SNORD28 /// SNORD29 /// SNORD31 / Fold change vs veh, SNHG1 /// SNORD22 /// SNORD25 /// SNORD26 /// SNORD27 /// SNORD28 /// SNORD29 /// SNORD31 / Fold change (Aza/veh), C12orf56 (ProbeSet 11735607_a_at) / Fold change (ACY-1035/veh), C12orf56 (ProbeSet 11735607_a_at) / Fold change (Aza/veh), FGFR1OP (ProbeSet 11751329_s_at) / Fold change (ACY-1035/veh), FGFR1OP (ProbeSet 11751329_s_at) / Fold change (Aza/veh), VPS36 (ProbeSet 11739960_a_at) / Fold change (ACY-1035/veh), VPS36 (ProbeSet 11739960_a_at) / RFU SYPL1 (11715823_x_at) / Fold change /veh SYPL1 (11715823_x_at) / RFU IGFBP7 (11715501_s_at) / Fold change /veh IGFBP7 (11715501_s_at) / RFU REEP3 (11722064_at) / Fold change /veh REEP3 (11722064_at) / RFU IGLL1 (11728026_x_at) / Fold change /veh IGLL1 (11728026_x_at): dose or concentration left out as unconfirmed.

For `Nc1ccc(-c2cccs2)cc1NC(=O)c1ccc2c(c1)cc(C1CC1)n2CCN1CCOCC1` [ACY-1035], the “RFU CDHR5 (11726645_a_at)” value came out at 42.85 RFU.
